{"source": "paper PMC7300217", "about": "“Surfactin Like Broad Spectrum Antimicrobial Lipopeptide Co-produced With Sublancin From Bacillus subtilis Strain A52: Dual Reservoir of Bioactives” (Frontiers in Microbiology, 2020)", "key": {"B. cereus MTCC 430": {"system": "B. cereus MTCC 430", "experiment": "MIC, microtiter plate dilution assay", "assay_type": "cell-based", "conditions": "5 × 10^5 CFU/ml, 37°C, OD600 after 24 h, triplicate", "procedure": "(§1) The minimum inhibitory concentration (MIC) of HPLC purified peptides was evaluated by using microtiter plate dilution assay. The peptide concentration was estimated using BCA protein assay (Thermo Fisher Scientific, United States) method as described by manufacturer. Actively growing test strains (5 × 10^5 CFU/ml) were inoculated in a 96-well plate with different concentrations of the peptides and plates were incubated for 24–48 h at 37°C (final volume in each well is 200 μl). OD was measured at 600 nm after 24 and 48 h for bacteria and yeast, respectively, using ELISA microplate reader (Thermo, United States). MIC against phytopathogenic fungi was determined using 96-well microtiter plate assay ([Kaur et al., 2016]). In 96-well microplates, 100 μl of fungal spore suspension (1 × 10^5 spores/ml) prepared in potato dextrose broth (PDB, Hi-media, India) was mixed with100 μl of fresh PDB containing different concentrations of lipopeptide. Control well contained 100 μl of fungal spore suspension and 100 μl of only medium. The microplates were incubated at 25°C and readings were recorded at 600 nm after 48 h. The lowest concentration showing no growth was considered as MIC. Each test was done in triplicate and optical density (OD600) of peptide treated wells were compared with uninoculated wells (blank medium control)."}, "B. coagulans MTCC 492": {"system": "B. coagulans MTCC 492", "experiment": "MIC, microtiter plate dilution assay", "assay_type": "cell-based", "conditions": "5 × 10^5 CFU/ml, 37°C, OD600 after 24 h, triplicate", "procedure": "as §1"}, "E. coli MTCC 1610": {"system": "E. coli MTCC 1610", "experiment": "MIC, microtiter plate dilution assay", "assay_type": "cell-based, Escherichia coli", "conditions": "5 × 10^5 CFU/ml, 37°C, OD600 after 24 h, triplicate", "procedure": "The antimicrobial activity was tested by well diffusion assay as mentioned earlier ([Singh et al., 2014]). Strain A52 was grown for 24 h in 500 ml of nutrient broth (NB, Hi-media, India) using 1000 ml flask and subsequently cells were removed by centrifugation (10,000 rpm for 15 min at 4°C). Supernatant was filtered through 0.22 μm filter (Millipore, United States) to obtain cell-free fermented broth (CFB) that was used for antimicrobial assay (50 μl) against various indicator strains and the activity was measured as diameter of inhibition zone. […]\nThe minimum inhibitory concentration (MIC) of HPLC purified peptides was evaluated by using microtiter plate dilution assay. […] OD was measured at 600 nm after 24 and 48 h for bacteria and yeast, respectively, using ELISA microplate reader (Thermo, United States). MIC against phytopathogenic fungi was determined using 96-well microtiter plate assay ([Kaur et al., 2016]). […] The microplates were incubated at 25°C and readings were recorded at 600 nm after 48 h. […]"}, "[1]": {"experiment": "Temperature sensitivity, residual antimicrobial activity", "assay_type": "physicochemical", "conditions": "residual antimicrobial activity by well diffusion assay at RT; for Residual activity (%), temperature 100 ºC: 100 °C", "procedure": "(§2) Sensitivity of purified peptides toward temperature, pH, and non-specific proteases was confirmed by performing bioassays. The pH stability was determined by adjusting the pH 2.0–12.0 of peptide aliquots (using 10 mM HCl or NaOH) and incubating for 4 h at room temperature. Samples were neutralized to pH 7.0 before processing for antimicrobial assay. To determine temperature susceptibility, peptides were incubated at different temperatures ranging from 37 to 100°C for 1 h and 121°C for 15 min and residual antimicrobial activity was determined at RT by well diffusion assay. Proteolytic enzymes trypsin and proteinase K (Sigma, United States) were used at three different concentrations (0.1, 1.0, and 5.0 mg/ml) to observe their effect on the peptide. The enzyme solutions were prepared in 50 mM phosphate buffer (pH 7.0). All reactions were performed at 37°C for 6 h followed by deactivation of enzyme by heating the solution in boiling water for 5 min before performing the activity assay."}, "proteinase K": {"target": "T1, proteinase K (Parengyodontium album, UniProt P06873)", "T1 construct": "purchased Sigma, United States", "T1 sequence (P06873 106-384)": "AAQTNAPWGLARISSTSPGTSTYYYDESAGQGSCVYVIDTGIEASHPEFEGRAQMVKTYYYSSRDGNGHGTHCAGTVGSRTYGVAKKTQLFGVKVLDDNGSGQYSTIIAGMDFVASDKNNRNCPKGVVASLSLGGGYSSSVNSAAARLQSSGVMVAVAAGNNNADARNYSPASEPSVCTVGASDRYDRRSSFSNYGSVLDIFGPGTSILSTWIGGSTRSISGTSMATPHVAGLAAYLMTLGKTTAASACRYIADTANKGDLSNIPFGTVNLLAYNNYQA", "experiment": "Sensitivity to proteolytic enzyme, residual antimicrobial activity", "assay_type": "in vitro ADME", "conditions": "6h/ 37°C, enzyme 0.1, 1.0 and 5.0 mg/ml in 50 mM phosphate buffer pH 7.0, enzyme deactivated in boiling water 5 min", "procedure": "as §2"}, "S. aureus MTCC 1430": {"system": "S. aureus MTCC 1430", "experiment": "TLC overlay bioautography", "assay_type": "cell-based, Staphylococcus aureus", "conditions": "∼10^6 cells/ml, 24 h at 37°C", "procedure": "Purified antimicrobial peptides were analyzed on TLC plates (Silica gel 60 F254, Merck, Germany) and used to determine the purity and antimicrobial activity of the compound by bioautographic assay ([Zheng et al., 2005]). About 50–60 μl of the peptide solution (100 μg/ml concentration) was loaded onto individual TLC silica gel plates in duplicates and were developed using a solvent system containing chloroform: […]: water (65:12:4 v/v). Subsequently, each TLC plate was dried, cut into two vertical parts, and one part of the TLC was used for direct detection of antimicrobial activity by overlaying on NA plate containing indicator strain (S. aureus MTCC 1430, ∼10^6 cells/ml). After allowing for 1 h of diffusion at 4°C, the TLC strip was removed and plates were incubated for 24 h at 37°C. The other part of TLC strip (5–10 μl of the peptide solution spot) was sprayed with ninhydrin and phosphomolybdic acid as a staining reagent to detect the presence of peptides and lipid moieties, respectively. Similarly, peptides were electrophoresed on 16% Tricine-SDS-PAGE and used for in-gel activity assay as described earlier ([Baindara et al., 2016]). S. aureus MTCC 1430 (∼10^6 cells/ml) was used as an indicator strain in assay."}, "[2]": {"experiment": "Collapse drop assay (CDA)", "assay_type": "physicochemical", "conditions": "5 μl of peptide (10 μg/ml) on mineral oil, observed after 1 min", "procedure": "The surfactant property of peptide was determined using the qualitative drop-collapse assay ([Youssef et al., 2004]). Mineral oil (2 μl) was added to 96-well microtiter plate and equilibrated for 24 h at 37°C. After equilibration 5 μl of purified peptides (10 μg/ml) were added to the surface of the oil and drop shape was observed after 1 min using magnifying glass. Triton X-100 and water were used as positive and negative control, respectively."}}, "data": [{"substance": "Glu^1-Leu/Ile^2-Leu^3-Val^4-Asp^5-Leu^6-Leu/Ile^7 and a β-OH hexadecane fatty acid chain (lariat or depsi) [Lipopeptide A52, cyclic surfactin-like lipopeptide, 7 amino acids and C16 β-hydroxy fatty acid, 1061.9 Da, from B. subtilis strain A52]", "values": [{"measurement": "MIC value, B. cereus MTCC 430", "setting": "B. cereus MTCC 430", "value": 2, "unit": "µg/mL"}, {"measurement": "MIC value, B. coagulans MTCC 492", "setting": "B. coagulans MTCC 492", "value": 2, "unit": "µg/mL"}, {"measurement": "MIC value, E. coli MTCC 1610", "setting": "E. coli MTCC 1610", "value": 6, "unit": "µg/mL"}, {"measurement": "Residual activity (%), temperature 37 ºC", "setting": "[1]; 37 °C, 1h", "value": 100, "unit": "%"}, {"measurement": "Residual activity (%), temperature 50 ºC", "setting": "[1]; 50 °C, 1h", "value": 100, "unit": "%"}, {"measurement": "Residual activity (%), temperature 60 ºC", "setting": "[1]; 60 °C, 1h", "value": 100, "unit": "%"}, {"measurement": "Residual activity (%), temperature 70 ºC", "setting": "[1]; 70 °C, 1h", "value": 100, "unit": "%"}, {"measurement": "Residual activity (%), temperature 80 ºC", "setting": "[1]; 80 °C, 1h", "value": 100, "unit": "%"}, {"measurement": "Residual activity (%), temperature 100 ºC", "setting": "[1]; 1h, listed as Lipopeptide", "value": 100, "unit": "%"}, {"measurement": "Residual activity (%), temperature 100 ºC", "setting": "[1]; 1h, listed as surfactin-like lipopeptide", "value": "not affected"}, {"measurement": "Residual activity (%), temperature 121 ºC (autoclaving)", "setting": "[1]; 121 °C, 15 min (15 lbs)", "value": 89.0, "unit": "%"}, {"measurement": "Residual activity (%), Proteinase k", "setting": "proteinase K", "value": 100, "unit": "%"}, {"measurement": "inhibition in TLC based overlay bioautographic assay", "setting": "S. aureus MTCC 1430", "value": "inhibited"}, {"measurement": "drop collapse (surfactant property)", "setting": "[2]", "value": "positive"}]}]}
